Biological target: tau (Homo sapiens, UniProt P10636)
Experiment: MCE Phenols Library screening, tau biosensor cell seeding assay (AvZ)
Assay type: cell-based
Settings: for Z repl 1 / Z Repl 2: Z score; for Z repl 1 / raw data 1: replicate 1; for Z Repl 2 / raw data 2: replicate 2; for AvZ (average z score of seeding, SDs from the mean level of seeding): 10 μM phenol in cell cultures, AD brain homogenate preincubated 16 hours, two biological replicates, positive = catalyzes seeding, negative = inhibits
[1] = average Z score of the two replicates, MCE Phenols Library screen
[2] = average Z score of the two replicates, tau seeding
[3] = average puncta of the two replicates
[4] = average Z score of two replicates, Phenols Library screen

Sequence of tau (P10636 623-695 limits assumed): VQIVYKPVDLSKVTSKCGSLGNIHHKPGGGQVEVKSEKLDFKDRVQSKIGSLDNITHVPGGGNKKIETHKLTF

Row | Compound | Z repl 1 | Z Repl 2 | av Z [1] | av puncta (average of raw data 1 and 2) | raw data 1 (puncta) | raw data 2 (puncta) | av Z (average Z score of the two replicates, tau biosensor seeding, MCE Phenols Library screen) | av Z [2] | av puncta [3] | raw data 1 (raw puncta) | raw data 2 (raw puncta) | AvZ (average z score of seeding, SDs from the mean level of seeding) | av Z [4]
1 | O=C(O[C@@H]1[C@@H](O)[C@H](Oc2cc(O)c(C(=O)CCc3ccccc3)c(O)c2)O[C@@H]2COC(=O)c3cc(O)c(O)c(O)c3-c3c(cc(O)c(O)c3O)C(=O)O[C@@H]12)c1cc(O)c(O)c(O)c1 [Thonningianin A] | -1.226 | -0.652 | -0.939 | 8713.6 | 11629.9 | 5797.27 |  |  |  |  |  |  | 
2 | CC[C@@]1(O)C(=O)OCc2c1cc1n(c2=O)Cc2cc3cc(O)ccc3nc2-1 [(S)-10-Hydroxycamptothecin] | 1.738 | 1.796 |  | 39581.6 | 47219.2 | 31944.1 | 1.767 |  |  |  |  |  | 
3 | COc1ccc(-c2cc(=O)c3c(O)c(OC)c(O[C@@H]4O[C@H](CO[C@@H]5O[C@@H](C)[C@H](O)[C@@H](O)[C@H]5O)[C@@H](O)[C@H](O)[C@H]4O)cc3o2)cc1 [Pectolinarin] | 0.677 | -0.144 |  | 22850.6 | 34472.8 | 11228.4 |  | 0.266 |  |  |  |  | 
4 | Rhodiosin | -1.331 | -1.146 | -1.239 | 5448.02 | 10373.6 | 522.423 |  |  |  |  |  |  | 
5 | OC[C@H]1O[C@@H](Oc2cc(O)cc(/C=C/c3ccc(O[C@@H]4O[C@H](CO)[C@@H](O)[C@H](O)[C@H]4O)cc3O)c2)[C@H](O)[C@@H](O)[C@@H]1O [Mulberroside A] | -0.183 | -0.34 | -0.262 |  |  |  |  |  | 16641.5 | 24150.5 | 9132.57 |  | 
6 | O=C(/C=C/c1ccc(O)c(O)c1)O[C@@H](C(=O)O)[C@@H](O)C(=O)O [Caftaric acid] | -0.317 | -0.61 |  |  | 22545.7 | 6248.57 |  |  | 14397.2 |  |  | -0.464 | 
7 | O=c1c(O[C@@H]2OC[C@@H](O)[C@H](O)[C@H]2O)c(-c2ccc(O)c(O)c2)oc2cc(O)cc(O)c12 [Reynoutrin] | -0.491 | -0.104 | -0.297 |  |  |  |  |  | 16057.3 | 20455.1 | 11659.4 |  | 
8 | O=c1c(O[C@@H]2OC[C@H](O)[C@H](O)[C@H]2O)c(-c2ccc(O)c(O)c2)oc2cc(O)cc(O)c12 [Guaijaverin] | -0.067 | -0.383 | -0.225 |  |  |  |  |  | 17108.5 | 25544.8 | 8672.24 |  | 
9 | CCCCCC/C=C\CCCCCCCCCc1cccc(O)c1C(=O)O [Ginkgolic acid C17:1] | 0.386 | 0.198 |  | 22931 | 30979.1 | 14882.8 |  |  |  |  |  | 0.292 | 
10 | COc1cc(/C=C/C(=O)O[C@H]2[C@H](O)[C@@H](CO)O[C@@]2(CO)O[C@H]2O[C@H](COC(=O)c3ccc(O)cc3)[C@@H](O)[C@H](O)[C@H]2O)cc(OC)c1O [Tenuifoliside B] | -0.53 | -0.01 | -0.27 |  |  |  |  |  | 16324 | 19990.7 | 12657.2 |  | 
11 | C[C@@H]1O[C@@H](OC[C@H]2O[C@@H](OCCc3ccc(O)c(O)c3)[C@H](O)[C@@H](OC(=O)/C=C/c3ccc(O)c(O)c3)[C@@H]2O)[C@H](O)[C@H](O)[C@H]1O [Forsythoside I] | -1.102 | -0.666 | -0.884 | 9388.55 | 13120.4 | 5656.67 |  |  |  |  |  |  | 
12 | COc1cc(C(=O)O)cc(O)c1O [3-O-Methylgallic acid] | -1.04 | -0.532 |  | 10472 | 13858.8 | 7085.12 |  |  |  |  |  | -0.786 | 
13 | N[C@@H](Cc1ccc(O)c(Cl)c1)C(=O)O [3-Chloro-L-tyrosine] | 0.451 | -0.515 |  | 19517.9 | 31767.4 | 7268.49 |  |  |  |  |  | -0.032 | 
14 | COc1cc(CCN)ccc1O [3-Methoxytyramine] | 0.052 | -0.661 |  |  |  |  |  |  | 16341.1 | 26971.9 | 5710.28 | -0.304 | 
15 | Oc1cc(O)c2c(c1)O[C@H](c1ccc(O)c(O)c1)[C@@H](O)C2 [Catechin] | -0.542 | -0.523 | -0.532 |  | 19846.5 | 7181.16 |  |  | 13513.8 |  |  |  | 
16 | COc1cc(-c2oc3cc(O)cc(O)c3c(=O)c2O)ccc1O [Isorhamnetin] | 0.124 | -0.648 | -0.262 |  |  |  |  |  | 16840.7 | 27835.2 | 5846.21 |  | 
17 | Cc1cc(=O)oc2cc(O)ccc12 [4-Methylumbelliferone] | -0.898 | -0.379 | -0.639 |  | 15562.7 | 8717.47 |  |  | 12140.1 |  |  |  | 
18 | O=c1cc(O)cc(/C=C/c2ccc(O)c(O)c2)o1 [Hispidin] | 0.687 | -0.112 |  | 23081.7 | 34594.7 | 11568.8 |  | 0.287 |  |  |  |  | 
19 | COc1cc(O)c2c(c1)O[C@H](c1ccc(O)cc1)CC2=O [Sakuranetin] | 0.003 | -0.01 |  | 19521.3 | 26379.5 | 12663.1 |  |  |  |  |  |  | -0.004
20 | Tubuloside A | 0.218 | 0.274 |  | 22327.4 | 28967.6 | 15687.1 |  |  |  |  |  |  | 
21 | O=c1c2cc(O)c(O)cc2oc2c([C@@H]3O[C@H](CO)[C@@H](O)[C@H](O)[C@H]3O)c(O)cc(O)c12 [Isomangiferin] | 0.307 | 0.537 |  | 24267.1 | 30032.6 | 18501.6 |  | 0.422 |  |  |  |  | 
22 | COc1cc(O)c2c(=O)c(O)c(-c3ccc(O)c(O)c3)oc2c1 [Rhamnetin] | -0.386 | 0.151 |  | 18050.7 | 21720.4 | 14381.1 |  |  |  |  |  |  | -0.117
23 | COc1c2ccoc2nc2c(O)cccc12 [Robustine] | 0.29 | 0.728 |  | 25188.7 | 29833.7 | 20543.7 |  | 0.509 |  |  |  |  | 
24 | COc1cc2oc(-c3ccccc3)cc(=O)c2c(O)c1OC [Mosloflavone] | 0.192 | 0.208 |  | 21820.5 | 28649.1 | 14991.8 |  | 0.2 |  |  |  |  | 

— PMC11784839, “Monoaminergic neurotransmitters are bimodal effectors of tau aggregation” (Science Advances, 2025)
